From ChEMBL document CHEMBL5465560, “Selectivity Literature for EUbOPEN Chemogenomic Library” (2024)

Experiments:
[1] = target: MAP kinase-interacting serine/threonine-protein kinase 2 (Homo sapiens, UniProt Q9HBH9); assay: Selectivity interaction (KinomeScan (DiscoverX)) EUB0000229b MKNK2; details: at 10 µM
[2] = target: T1, Mitogen-activated protein kinase kinase kinase 6 (Homo sapiens) (UniProt O95382); assay: Selectivity interaction (ActivX KiNativ screen (kinase selectivity in THP-1 cell lysates)) EUB0000639a MAP3K6; format: subcellular; details: lysate, at 5 µM
T1 sequence (whole entry): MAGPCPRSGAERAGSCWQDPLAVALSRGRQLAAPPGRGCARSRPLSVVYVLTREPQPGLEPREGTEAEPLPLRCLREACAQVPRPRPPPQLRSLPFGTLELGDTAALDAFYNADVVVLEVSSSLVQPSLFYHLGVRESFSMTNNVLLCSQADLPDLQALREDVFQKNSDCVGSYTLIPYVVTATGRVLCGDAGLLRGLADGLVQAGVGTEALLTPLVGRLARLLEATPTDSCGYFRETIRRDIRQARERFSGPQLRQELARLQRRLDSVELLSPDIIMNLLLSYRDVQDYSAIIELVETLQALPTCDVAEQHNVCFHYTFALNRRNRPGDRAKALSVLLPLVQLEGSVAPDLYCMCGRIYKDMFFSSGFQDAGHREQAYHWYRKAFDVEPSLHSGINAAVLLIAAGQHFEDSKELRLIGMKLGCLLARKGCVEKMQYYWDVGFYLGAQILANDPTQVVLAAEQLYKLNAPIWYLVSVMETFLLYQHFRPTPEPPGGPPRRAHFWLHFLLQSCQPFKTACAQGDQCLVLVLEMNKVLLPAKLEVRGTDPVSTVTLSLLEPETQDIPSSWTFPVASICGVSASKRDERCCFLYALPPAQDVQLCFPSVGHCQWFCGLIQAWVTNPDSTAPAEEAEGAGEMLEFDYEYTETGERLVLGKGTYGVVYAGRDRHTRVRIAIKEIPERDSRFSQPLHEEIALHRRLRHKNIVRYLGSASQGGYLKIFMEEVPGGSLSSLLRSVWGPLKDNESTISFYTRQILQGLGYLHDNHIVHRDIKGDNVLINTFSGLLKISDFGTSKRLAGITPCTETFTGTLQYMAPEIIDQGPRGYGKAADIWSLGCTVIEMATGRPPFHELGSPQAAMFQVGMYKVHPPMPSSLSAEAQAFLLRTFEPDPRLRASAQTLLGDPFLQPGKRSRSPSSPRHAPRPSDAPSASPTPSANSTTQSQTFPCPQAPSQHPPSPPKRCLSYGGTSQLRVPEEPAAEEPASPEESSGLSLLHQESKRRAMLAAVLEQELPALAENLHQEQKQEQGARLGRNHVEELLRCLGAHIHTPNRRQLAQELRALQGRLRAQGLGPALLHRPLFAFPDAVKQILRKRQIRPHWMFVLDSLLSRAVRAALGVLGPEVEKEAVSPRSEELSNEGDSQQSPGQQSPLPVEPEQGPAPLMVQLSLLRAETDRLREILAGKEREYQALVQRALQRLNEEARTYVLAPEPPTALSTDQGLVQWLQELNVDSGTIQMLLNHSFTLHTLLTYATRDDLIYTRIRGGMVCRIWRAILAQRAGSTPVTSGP

[3] = target: T2, Serine/threonine-protein kinase ULK2 (Homo sapiens) (UniProt Q8IYT8); assay: Selectivity interaction (KinomeScan (DiscoverX)) EUB0000607a ULK2; details: at 10 µM
T2 sequence (whole entry): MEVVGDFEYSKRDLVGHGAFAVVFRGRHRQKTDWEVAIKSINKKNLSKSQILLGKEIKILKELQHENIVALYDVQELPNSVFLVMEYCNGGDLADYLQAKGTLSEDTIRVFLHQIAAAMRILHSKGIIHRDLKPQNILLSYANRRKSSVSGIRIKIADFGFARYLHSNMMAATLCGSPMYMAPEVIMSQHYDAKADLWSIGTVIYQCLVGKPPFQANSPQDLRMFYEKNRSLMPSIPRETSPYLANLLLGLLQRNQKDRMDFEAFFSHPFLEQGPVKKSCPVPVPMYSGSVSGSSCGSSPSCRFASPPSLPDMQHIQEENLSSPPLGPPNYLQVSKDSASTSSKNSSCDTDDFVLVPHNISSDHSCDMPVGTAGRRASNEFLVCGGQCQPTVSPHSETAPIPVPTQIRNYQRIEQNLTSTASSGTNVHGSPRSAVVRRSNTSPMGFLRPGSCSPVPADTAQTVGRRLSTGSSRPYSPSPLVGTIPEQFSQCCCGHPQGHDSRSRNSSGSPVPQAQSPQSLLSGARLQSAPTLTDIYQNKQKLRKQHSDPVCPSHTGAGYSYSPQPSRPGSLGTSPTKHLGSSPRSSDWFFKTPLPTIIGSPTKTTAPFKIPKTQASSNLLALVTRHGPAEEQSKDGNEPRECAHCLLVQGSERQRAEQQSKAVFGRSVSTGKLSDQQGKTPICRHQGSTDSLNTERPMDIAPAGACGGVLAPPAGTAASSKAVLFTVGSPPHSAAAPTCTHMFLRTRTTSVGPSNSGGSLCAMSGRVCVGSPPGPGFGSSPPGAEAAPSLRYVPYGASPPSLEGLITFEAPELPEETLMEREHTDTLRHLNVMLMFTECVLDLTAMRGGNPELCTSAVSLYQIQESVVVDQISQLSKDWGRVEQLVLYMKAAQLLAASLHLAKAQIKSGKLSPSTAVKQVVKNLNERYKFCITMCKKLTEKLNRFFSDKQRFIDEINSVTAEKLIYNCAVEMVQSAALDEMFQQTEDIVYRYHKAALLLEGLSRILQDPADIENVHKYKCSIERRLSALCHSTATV

[4] = target: T3, Uncharacterized serine/threonine-protein kinase SBK3 (Homo sapiens) (UniProt P0C264); assay: Selectivity interaction (KinomeScan (DiscoverX)) EUB0000045b SBK3
T3 sequence (whole entry): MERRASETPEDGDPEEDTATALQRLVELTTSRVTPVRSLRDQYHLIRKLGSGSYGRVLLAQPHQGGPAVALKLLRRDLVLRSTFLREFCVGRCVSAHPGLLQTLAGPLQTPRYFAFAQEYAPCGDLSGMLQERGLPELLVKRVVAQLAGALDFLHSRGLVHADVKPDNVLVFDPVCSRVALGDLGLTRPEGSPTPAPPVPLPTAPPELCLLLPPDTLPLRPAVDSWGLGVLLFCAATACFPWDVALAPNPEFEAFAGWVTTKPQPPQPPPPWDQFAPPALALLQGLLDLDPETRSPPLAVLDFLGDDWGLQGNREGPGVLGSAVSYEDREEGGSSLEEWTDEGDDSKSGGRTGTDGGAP

MAP kinase-interacting serine/threonine-protein kinase 2, sequence (Q9HBH9 whole entry, looked up): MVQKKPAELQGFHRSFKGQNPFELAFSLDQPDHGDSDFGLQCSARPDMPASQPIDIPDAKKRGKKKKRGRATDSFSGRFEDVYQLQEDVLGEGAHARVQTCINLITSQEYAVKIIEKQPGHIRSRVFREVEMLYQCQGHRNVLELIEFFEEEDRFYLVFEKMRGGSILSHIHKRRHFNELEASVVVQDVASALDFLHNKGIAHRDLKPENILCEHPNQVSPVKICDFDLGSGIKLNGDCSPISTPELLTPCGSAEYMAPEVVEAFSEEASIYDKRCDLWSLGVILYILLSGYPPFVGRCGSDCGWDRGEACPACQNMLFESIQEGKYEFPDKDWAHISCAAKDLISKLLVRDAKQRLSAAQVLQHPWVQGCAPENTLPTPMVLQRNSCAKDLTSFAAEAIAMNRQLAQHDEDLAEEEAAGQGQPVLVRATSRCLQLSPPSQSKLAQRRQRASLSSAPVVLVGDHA

COc1cc(N(C)c2ccnc3ccc(C(F)(F)F)cc23)cc(OC)c1OC
% binding [1]: 90%

CC[C@@H]1[C@H](F)C(=O)N[C@@H]1COc1nccc2cc(C(N)=O)c(OC)cc12 [ZIMLOVISERTIB]
% of inhibition [2]: -27%

CNC(=O)Nc1ccc(-c2nc(N3CC4CCC(C3)O4)c3cnn(C4CCC5(CC4)OCCO5)c3n2)cc1
% of control [3]: 90%

C=CC(=O)Nc1cc(-n2c(=O)ccc3cnc4ccc(-c5ccc(NS(C)(=O)=O)cc5)cc4c32)ccc1C
% of control ([4]; at 1 µM): 100%
% of control ([4]; at 10 µM): 100%
